Results from PubChem BioAssay (NCI).
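Five concentrations, 48 hours, 96-well plates. GI50 = concentration required for 50% inhibition of growth. At the TGI there is no net growth.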

Experiments:
Assay in all cases: NCI-60 cell line screen, 48 h
CAKI-1 renal = system: CAKI-1 renal
UACC-257 melanoma = system: UACC-257 melanoma
MALME-3M melanoma = system: MALME-3M melanoma
HOP-62 NSCLC = system: HOP-62 NSCLC
HL-60(TB) leukemia = system: HL-60(TB) leukemia
SK-OV-3 ovarian = system: SK-OV-3 ovarian
KM12 colon = system: KM12 colon
SK-MEL-2 melanoma = system: SK-MEL-2 melanoma
NCI/ADR-RES ovarian = system: NCI/ADR-RES ovarian
SR leukemia = system: SR leukemia

Row | SMILES | GI50 (CAKI-1 renal) [µM] | TGI (CAKI-1 renal) [µM] | GI50 (UACC-257 melanoma) [µM] | TGI (UACC-257 melanoma) [µM] | GI50 (MALME-3M melanoma) [µM] | TGI (MALME-3M melanoma) [µM] | GI50 (HOP-62 NSCLC) [µM] | TGI (HOP-62 NSCLC) [µM] | GI50 (HL-60(TB) leukemia) [µM] | TGI (HL-60(TB) leukemia) [µM] | GI50 (SK-OV-3 ovarian) [µM] | TGI (SK-OV-3 ovarian) [µM] | GI50 (KM12 colon) [µM] | TGI (KM12 colon) [µM] | GI50 (SK-MEL-2 melanoma) [µM] | TGI (SK-MEL-2 melanoma) [µM] | GI50 (NCI/ADR-RES ovarian) [µM] | TGI (NCI/ADR-RES ovarian) [µM] | TGI (SR leukemia) [µM] | GI50 (SR leukemia) [µM]
1 | CCCCN(CCCC)CCCn1c(=O)c2c3ccccc3n(C)c2n2nnc(-c3ccccc3)c12 | 49.8 | > 100 | 28.7 | 82.5 | 28.4 | 90 | 30.6 | > 100 | 2.54 | 41.7 | 30.3 | > 100 | 34.3 | > 100 | > 100 | > 100 | 14.3 | 67.7 | – | –
2 | O=C(NCC(O)CNC(=O)C(F)(F)F)C(F)(F)F | – | > 100 | – | > 100 | – | > 100 | – | > 100 | – | > 100 | – | > 100 | – | > 100 | – | – | – | – | > 100 | –
3 | c1ccc(CN=C(NCc2ccccc2)NCc2ccccc2)cc1 | 11.1 | 26.7 | 3.23 | 11.1 | 3.56 | 17.1 | 12.7 | 25.9 | 2.69 | 13.2 | 10.9 | 23.6 | 3.36 | 13.1 | – | – | 30.6 | > 100 | 29.5 | 6.21
4 | COc1cc2c(cc1OC)C(=O)Cc1ccc(OC)c(OC)c1CN(C)CC2 | – | > 100 | – | > 100 | – | > 100 | – | > 100 | – | – | – | > 100 | – | > 100 | – | > 100 | – | – | – | –
5 | O=C1c2ccccc2C(=O)N1C/C=C/CO | – | > 100 | – | > 100 | – | > 100 | – | > 100 | – | > 100 | – | > 100 | – | > 100 | – | > 100 | – | – | > 100 | –
6 | CSCCOC(=O)C(=[N+]=[N-])c1ccc([N+](=O)[O-])cc1 | – | > 100 | – | > 100 | – | > 100 | – | > 100 | – | > 100 | – | > 100 | – | > 100 | – | > 100 | – | – | > 100 | –
7 | O=C(NC1C2CC3CC(C2)CC1C3)c1cc(/C=C/c2ccccc2)[nH]c(=S)n1 (centres undefined) | – | > 100 | – | > 100 | – | > 100 | – | > 100 | – | > 100 | – | > 100 | – | > 100 | – | > 100 | – | – | > 100 | –
8 | O=C1CC(O)(c2ccccc2)C(c2ccccc2)=C1c1ccccc1 (centres undefined) | – | > 100 | – | > 100 | – | > 100 | – | > 100 | – | 56.3 | – | > 100 | – | > 100 | – | > 100 | – | – | – | –
9 | Cc1ccc(-c2nc(N3CCCNCC3)c3oc(-c4ccccc4)nc3n2)cc1 | 1.65 | 3.03 | 1.96 | 3.48 | 1.93 | 3.48 | 1.84 | 3.36 | 1.35 | 3.17 | 1.89 | 3.31 | 1.89 | 3.45 | 2.03 | 3.77 | – | – | 0.624 | 0.239
